Laboratory results reported in ChEMBL document CHEMBL4219261, “Discovery of 3(S)-thiomethyl pyrrolidine ERK inhibitors for oncology” (Bioorg Med Chem Lett, 2018).

Assays:
[1] = target: Mitogen-activated protein kinase 1 (Homo sapiens, UniProt P28482); test: Inhibition of ERK2 (unknown origin)
[2] = Drug level in human cryopreserved hepatocytes treated with [3H]8 at 1 uCi/ml up to 4 hrs by LC-ESI/MS/MS analysis; format: ADME, cell-based, Hepatocyte
[3] = Drug level in rat cryopreserved hepatocytes treated with (R)-N-(3-(4-fluorophenyl)-1H-indazol-5-yl)-1-(2-oxo-2-(4-(4-(pyrimidin-2-yl)phenyl)piperazin-1-yl)ethyl)pyrrolidine-3-carboxamide at 10 uM up to 4 hrs by LC-ESI/MS/MS analysis; format: ADME, cell-based, Hepatocyte
[4] = Clearance in dog hepatocytes assessed per million cells; format: ADME, cell-based, Canis lupus familiaris, Hepatocyte
[5] = Apparent permeability in human Caco2 cells […]; format: ADME, cell-based; settings: Caco-2
[6] = MRT in dog at 2 mg/kg, iv or 2 mg/kg dosed via portal vein infusion or 10 mg/kg, po; format: ADME, organism-based, Canis lupus familiaris; settings: in vivo
[7] = Half life in rat at 3 mg/kg, iv or 10 mg/kg, po; format: ADME, organism-based; settings: in vivo
[8] = AUC in dog at 10 mg/kg, po; format: ADME, organism-based, Canis lupus familiaris; settings: in vivo
hERG (KCNH2) = hERG (KCNH2) (Homo sapiens, UniProt Q12809); test: Inhibition of human ERG at […] by Rb efflux assay
[9] = MRT in rat at 3 mg/kg, iv or 10 mg/kg, po; format: ADME, organism-based; settings: in vivo
[10] = Total plasma clearance in dog at 2 mg/kg, iv or 2 mg/kg dosed via portal vein infusion or 10 mg/kg, po; format: ADME, organism-based, Canis lupus familiaris
[11] = Clearance in human hepatocytes assessed per million cells; format: ADME, cell-based, Hepatocyte
Cytochrome P450 3A4 [12] = target: T1, Cytochrome P450 3A4 (Homo sapiens, UniProt P08684); test: Inhibition of CYP3A4 (unknown origin) under pre-incubation condition; format: ADME
[13] = Oral bioavailability in dog at 10 mg/kg; format: ADME, organism-based, Canis lupus familiaris; settings: in vivo
Cytochrome P450 3A4 [14] = target: T1, Cytochrome P450 3A4; test: Inhibition of CYP3A4 (unknown origin) under co-incubation condition; format: ADME
HT-29 [15] = test: Induction of apoptosis in human HT-29 cells harboring BRAF/KRAS mutant by caspase activation assay; format: functional, cell-based
[16] = Total plasma clearance in rat at 3 mg/kg, iv or 10 mg/kg, po; format: ADME, organism-based
[17] = Oral bioavailability in rat at or 10 mg/kg; format: ADME, organism-based; settings: in vivo
[18] = Half life in dog at 2 mg/kg, iv or 2 mg/kg dosed via portal vein infusion or 10 mg/kg, po; format: ADME, organism-based, Canis lupus familiaris; settings: in vivo
[19] = Oral bioavailability in rat at 10 mg/kg; format: ADME, organism-based; settings: in vivo
HT-29 [20] = test: Antiproliferative activity against human HT-29 cells harboring BRAF/KRAS mutant; format: functional, cell-based
[21] = AUC in rat at 10 mg/kg; format: ADME, organism-based; settings: in vivo
[22] = Drug metabolism in rat cryopreserved hepatocytes assessed as N-(3-(4-fluorophenyl)-1H-indazol-5-yl)acetamide formation at 10 uM up to 4 hrs by LC-ESI/MS/MS analysis; format: ADME, cell-based, Hepatocyte
[23] = Drug metabolism in rat bile assessed as amide hydrolysis followed by glucuronidation level 10 mg/kg, iv measured during 8 to 24 hrs post dose by LC-ESI/MS/MS analysis; format: ADME, organism-based; settings: in vivo
[24] = Drug metabolism in human cryopreserved hepatocytes assessed as N-(3-(4-fluorophenyl)-1H-indazol-5-yl)acetamide formation at 1 uCi/ml up to 4 hrs by LC-ESI/MS/MS analysis; format: ADME, cell-based, Hepatocyte
[25] = Drug metabolism in rat bile assessed as amide hydrolysis followed by glucuronidation level 10 mg/kg, iv measured during 0 to 8 hrs post dose by LC-ESI/MS/MS analysis; format: ADME, organism-based; settings: in vivo
[26] = Drug metabolism in rat urine assessed as amide hydrolysis followed by glucuronidation level 10 mg/kg, iv measured during 0 to 8 hrs post dose by LC-ESI/MS/MS analysis; format: ADME, organism-based; settings: in vivo
[27] = Drug metabolism in human cryopreserved hepatocytes assessed as (R)-1-(2-oxo-2-(4-(4-(pyrimidin-2-yl)phenyl)piperazin-1-yl)ethyl)pyrrolidine-3-carboxylic acid formation at 1 uCi/ml up to 4 hrs by LC-ESI/MS/MS analysis; format: ADME, cell-based, Hepatocyte
[28] = Drug metabolism in rat cryopreserved hepatocytes assessed as (R)-1-(2-oxo-2-(4-(4-(pyrimidin-2-yl)phenyl)piperazin-1-yl)ethyl)pyrrolidine-3-carboxylic acid formation at 10 uM up to 4 hrs by LC-ESI/MS/MS analysis; format: ADME, cell-based, Hepatocyte
[29] = Drug metabolism in rat urine assessed as amide hydrolysis followed by glucuronidation level 10 mg/kg, iv measured during 8 to 24 hrs post dose by LC-ESI/MS/MS analysis; format: ADME, organism-based; settings: in vivo

Chain of Mitogen-activated protein kinase 1 (P28482 whole entry): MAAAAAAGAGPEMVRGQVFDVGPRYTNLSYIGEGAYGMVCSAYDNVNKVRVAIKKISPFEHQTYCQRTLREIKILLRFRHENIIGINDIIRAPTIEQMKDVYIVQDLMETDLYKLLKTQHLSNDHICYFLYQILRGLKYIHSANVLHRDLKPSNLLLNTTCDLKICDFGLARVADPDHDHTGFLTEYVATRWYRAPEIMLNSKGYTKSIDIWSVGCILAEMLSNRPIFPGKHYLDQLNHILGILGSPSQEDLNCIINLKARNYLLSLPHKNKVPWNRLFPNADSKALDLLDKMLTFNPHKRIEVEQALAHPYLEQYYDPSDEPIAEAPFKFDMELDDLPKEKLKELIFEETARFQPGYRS
T1 sequence (P08684 whole entry): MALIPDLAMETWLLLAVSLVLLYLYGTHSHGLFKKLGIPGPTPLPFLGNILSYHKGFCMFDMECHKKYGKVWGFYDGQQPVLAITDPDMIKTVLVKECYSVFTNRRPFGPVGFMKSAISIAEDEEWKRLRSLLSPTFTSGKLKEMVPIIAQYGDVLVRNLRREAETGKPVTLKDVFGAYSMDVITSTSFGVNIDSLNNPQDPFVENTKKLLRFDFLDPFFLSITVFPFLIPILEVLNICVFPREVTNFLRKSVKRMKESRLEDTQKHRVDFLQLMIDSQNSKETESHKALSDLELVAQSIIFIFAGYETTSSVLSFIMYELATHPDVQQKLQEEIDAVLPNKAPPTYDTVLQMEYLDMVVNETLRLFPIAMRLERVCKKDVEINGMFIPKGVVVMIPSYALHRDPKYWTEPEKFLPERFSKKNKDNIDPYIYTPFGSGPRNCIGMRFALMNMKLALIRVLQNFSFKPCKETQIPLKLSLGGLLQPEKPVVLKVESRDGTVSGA
Chain of hERG (KCNH2) (Q12809 whole entry): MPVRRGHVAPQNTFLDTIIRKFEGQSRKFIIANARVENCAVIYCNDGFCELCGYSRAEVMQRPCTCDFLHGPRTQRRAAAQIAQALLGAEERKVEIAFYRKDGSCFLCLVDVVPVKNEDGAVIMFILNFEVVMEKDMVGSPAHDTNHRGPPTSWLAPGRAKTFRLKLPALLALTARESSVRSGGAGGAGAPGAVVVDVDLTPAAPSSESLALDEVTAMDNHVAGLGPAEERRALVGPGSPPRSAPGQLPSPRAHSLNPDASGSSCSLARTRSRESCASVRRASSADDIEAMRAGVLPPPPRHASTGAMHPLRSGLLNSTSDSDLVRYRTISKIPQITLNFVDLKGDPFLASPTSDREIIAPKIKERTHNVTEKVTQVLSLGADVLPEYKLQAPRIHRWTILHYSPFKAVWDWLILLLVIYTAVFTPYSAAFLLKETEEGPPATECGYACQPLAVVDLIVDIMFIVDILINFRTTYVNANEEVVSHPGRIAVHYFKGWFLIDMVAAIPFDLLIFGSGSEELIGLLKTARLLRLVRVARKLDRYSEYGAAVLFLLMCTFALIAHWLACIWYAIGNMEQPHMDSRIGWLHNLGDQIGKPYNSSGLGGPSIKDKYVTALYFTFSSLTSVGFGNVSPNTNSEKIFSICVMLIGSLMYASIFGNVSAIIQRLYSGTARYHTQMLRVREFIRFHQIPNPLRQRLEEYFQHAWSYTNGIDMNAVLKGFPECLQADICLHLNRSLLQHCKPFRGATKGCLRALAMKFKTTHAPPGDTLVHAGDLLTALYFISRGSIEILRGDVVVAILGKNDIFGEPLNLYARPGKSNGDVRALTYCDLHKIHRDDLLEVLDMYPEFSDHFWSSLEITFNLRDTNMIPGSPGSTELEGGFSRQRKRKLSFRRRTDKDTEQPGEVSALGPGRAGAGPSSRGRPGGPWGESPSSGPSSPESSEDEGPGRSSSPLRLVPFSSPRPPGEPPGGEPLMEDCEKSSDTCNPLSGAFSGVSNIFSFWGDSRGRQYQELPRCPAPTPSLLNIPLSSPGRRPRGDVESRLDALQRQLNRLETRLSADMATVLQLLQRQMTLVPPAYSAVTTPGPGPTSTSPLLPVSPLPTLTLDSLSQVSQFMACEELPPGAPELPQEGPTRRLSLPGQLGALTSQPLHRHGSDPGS

## CC(=O)N(C[C@@H]1CCN(CC(=O)N2CCN(c3ccc(-c4ncccn4)cc3)CC2)C1)c1ccc2[nH]nc(-c3ccc(F)cc3)c2c1
[1]
  IC50: 0.574 µM

## O=C(CN1CC[C@@](CO)(C(=O)Nc2ccc3[nH]nc(-c4ccc(F)cc4)c3c2)C1)N1CC=C(c2ccc(-c3ncccn3)cc2)CC1
[1]
  IC50: 0.014 µM

## O=C(O)[C@@H]1CCN(CC(=O)N2CCN(c3ccc(-c4ncccn4)cc3)CC2)C1
[2]
  Drug metabolism: Metabolite_Detected
[3]
  Drug metabolism: Metabolite_Detected

## CO[C@@]1(C(=O)Nc2ccc3[nH]nc(-c4ccc(F)cc4)c3c2)CCN(CC(=O)N2CCN(c3ccc(-c4ncccn4)cc3)CC2)C1
[1]
  IC50: 0.0021 µM

## O=C(CN1CCC(Oc2ccccc2)(C(=O)Nc2ccc3[nH]nc(-c4ccc(F)cc4)c3c2)C1)N1CCN(c2ccc(-c3ncccn3)cc2)CC1 (stereo not drawn)
[1]
  IC50: > 3 µM

## O=C(Nc1ccc2[nH]nc(-c3ccc(F)cc3)c2c1)[C@@H]1CCN(CC(=O)N2CC=C(c3ccc(-c4ncccn4)cc3)CC2)C1
[1]
  IC50: 0.0155 µM

## CCO[C@@]1(C(=O)Nc2ccc3[nH]nc(-c4ccc(F)cc4)c3c2)CCN(CC(=O)N2CCN(c3ccc(-c4ncccn4)cc3)CC2)C1
[1]
  IC50: 0.0097 µM

## CS[C@@]1(C(=O)Nc2ccc3[nH]nc(-c4ccc(F)cc4)c3c2)CCN(CC(=O)N2CC=C(c3ccc(-c4ncccn4)cc3)CC2)C1
[4]
  CLH: 18 µL/min/1e6 cells
[5]
  Papp: 60 ×10⁻⁶ cm/s
[6]
  MRT: 5.1 h
[1]
  IC50: 0.007 µM
[7]
  half-life: 2.5 h
[8]
  AUC: 17.2 µM·h
hERG (KCNH2)
  inhibition at […]: 8%
[9]
  MRT: 2.5 h
[10]
  clearance: 7.6 mL/min/kg
[11]
  CLH: 7 µL/min/1e6 cells
Cytochrome P450 3A4 [12]
  IC50: 2 µM
[13]
  bioavailability: 75%
Cytochrome P450 3A4 [14]
  IC50: > 30 µM
HT-29 [15]
  IC50: 0.08 µM
[16]
  clearance: 8.4 mL/min/kg
[17]
  bioavailability: 70%
[18]
  half-life: 2 h

## COC[C@@]1(C(=O)Nc2ccc3[nH]nc(-c4ccc(F)cc4)c3c2)CCN(CC(=O)N2CC=C(c3ccc(-c4ncccn4)cc3)CC2)C1
[1]
  IC50: 0.041 µM

## O=C(CN1CCCC(c2cn(-c3ccc4[nH]nc(-c5ccc(F)cc5)c4c3)nn2)C1)N1CC=C(c2ccc(-c3ncccn3)cc2)CC1 (stereo not drawn)
[1]
  IC50: > 1 µM

## CS[C@@]1(C(=O)Nc2ccc3[nH]nc(-c4ccc(F)cc4)c3c2)CCN(CC(=O)N2CCN(c3ccc(-c4ncccn4)cc3)CC2)C1
[1]
  IC50: 0.0056 µM

## O=C(CN1CCC(CF)(C(=O)Nc2ccc3[nH]nc(-c4ccc(F)cc4)c3c2)C1)N1CCN(c2ccc(-c3ncccn3)cc2)CC1 (stereo not drawn)
[1]
  IC50: 0.0058 µM

## CS[C@]1(C(=O)Nc2ccc3[nH]nc(-c4ccc(F)cc4)c3c2)CCN(CC(=O)N2CC=C(c3ccc(-c4ncccn4)cc3)CC2)C1
[1]
  IC50: > 3 µM

## O=C(Nc1ccc2[nH]nc(-c3ccncc3)c2c1)[C@@H]1CCN(CC(=O)N2CCN(c3ccc(-c4ncccn4)cc3)CC2)C1
[5]
  Papp: 4 ×10⁻⁶ cm/s
[19]
  bioavailability: 0%
hERG (KCNH2)
  inhibition at […]: 12%
Cytochrome P450 3A4 [12]
  IC50: 5.7 µM
Cytochrome P450 3A4 [14]
  IC50: 7.8 µM
HT-29 [15]
  IC50: 0.096 µM
HT-29 [20]
  IC50: 0.059 µM
[17]
  bioavailability: 0%

## O=C(Nc1ccc2[nH]nc(-c3ccc(F)cc3)c2c1)C1CN(CC(=O)N2CC=C(c3ccc(-c4ncccn4)cc3)CC2)CCS1 (stereo not drawn)
[1]
  IC50: 1.31 µM

## CC(C)O[C@@]1(C(=O)Nc2ccc3[nH]nc(-c4ccc(F)cc4)c3c2)CCN(CC(=O)N2CCN(c3ccc(-c4ncccn4)cc3)CC2)C1
[1]
  IC50: 0.09 µM

## O=C(CN1CC[C@@H](CNc2ccc3[nH]nc(-c4ccc(F)cc4)c3c2)C1)N1CCN(c2ccc(-c3ncccn3)cc2)CC1
[1]
  IC50: 0.96 µM

## CC[C@@]1(C(=O)Nc2ccc3[nH]nc(-c4ccc(F)cc4)c3c2)CCN(CC(=O)N2CC=C(c3ccc(-c4ncccn4)cc3)CC2)C1
[1]
  IC50: 0.115 µM

## O=C(Nc1ccc2[nH]nc(-c3ccc(F)cc3)c2c1)C1CN(CC(=O)N2CC=C(c3ccc(-c4ncccn4)cc3)CC2)CCO1 (stereo not drawn)
[1]
  IC50: 0.119 µM

## COC[C@@]1(C(=O)Nc2ccc3[nH]nc(-c4ccc(F)cc4)c3c2)CCN(CC(=O)N2CCN(c3ccc(-c4ncccn4)cc3)CC2)C1
[1]
  IC50: 0.025 µM

## CO[C@@]1(C(=O)Nc2ccc3[nH]nc(-c4ccc(F)cc4)c3c2)CCN(CC(=O)N2CC=C(c3ccc(-c4ncccn4)cc3)CC2)C1
[4]
  CLH: 36 µL/min/1e6 cells
[1]
  IC50: 0.0048 µM
[8]
  AUC: 4.53 µM·h
hERG (KCNH2)
  inhibition at […]: 56%
[21]
  AUC: 1.88 µM·h
[11]
  CLH: 33 µL/min/1e6 cells
Cytochrome P450 3A4 [12]
  IC50: 2.2 µM
Cytochrome P450 3A4 [14]
  IC50: 31 µM
HT-29 [15]
  IC50: 0.079 µM
HT-29 [20]
  IC50: 0.088 µM

## CS(=O)(=O)[C@@]1(C(=O)Nc2ccc3[nH]nc(-c4ccc(F)cc4)c3c2)CCN(CC(=O)N2CC=C(c3ccc(-c4ncccn4)cc3)CC2)C1
[1]
  IC50: 0.012 µM

## [3H]c1cc(N2CCN(C(=O)CN3CC[C@@H](C(=O)Nc4ccc5[nH]nc(-c6c([3H])cc(F)cc6[3H])c5c4)C3)CC2)cc([3H])c1-c1ncccn1
[22]
  Drug metabolism: Metabolite_Detected
[23]
  Drug metabolism: Metabolite_Detected
[24]
  Drug metabolism: Metabolite_Detected
[25]
  Drug metabolism: Metabolite_Detected
[26]
  Drug metabolism: Metabolite_Detected
[27]
  Drug metabolism: Metabolite_Detected
[28]
  Drug metabolism: Metabolite_Detected
[29]
  Drug metabolism: Metabolite_Detected

## O=C(Nc1ccc2[nH]nc(-c3ccc(F)cc3)c2c1)[C@@H]1CCN(CC(=O)N2CCN(c3ccc(-c4ncccn4)cc3)CC2)C1
[1]
  IC50: 0.0055 µM

## CC(=O)Nc1ccc2[nH]nc(-c3ccc(F)cc3)c2c1
[2]
  Drug metabolism: Metabolite_Detected
[3]
  Drug metabolism: Metabolite_Detected

## C[C@@]1(C(=O)Nc2ccc3[nH]nc(-c4ccc(F)cc4)c3c2)CCN(CC(=O)N2CCN(c3ccc(-c4ncccn4)cc3)CC2)C1
[1]
  IC50: 0.024 µM

## CN(C)C1(C(=O)Nc2ccc3[nH]nc(-c4ccc(F)cc4)c3c2)CCN(CC(=O)N2CC=C(c3ccc(-c4ncccn4)cc3)CC2)C1 (stereo not drawn)
[1]
  IC50: 0.021 µM
